# Patent US12195427B2, “MASP-2 inhibitors and methods of use” (priority 2018, dated 2025)
# Biological target: MASP-2 CCP2-SP (Homo sapiens (Human), UniProt O00187)
# Assay: MASP-2 co-crystallization, X-ray crystallography and structure analysis (H-bonds, van der Waals contacts);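 as to Ligand-pharmacophore element distance, pharmacophore element C2: distance from averaged pharmacophore element to bound ligand; missing value means element absent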;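 as to Ligand-pharmacophore element distance, pharmacophore element C3: distance from averaged pharmacophore element to bound ligand; missing value means element absent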;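 as to Ligand-pharmacophore element distance, pharmacophore element C4: distance from averaged pharmacophore element to bound ligand; missing value means element absent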;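 as to Ligand-pharmacophore element distance, pharmacophore element C5: distance from averaged pharmacophore element to bound ligand; missing value means element absent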
# Design: van der Waals contact distance, MASP-2 HIS 483 atom CD2 / van der Waals contact distance, MASP-2 HIS 483 atom NE2 / van der Waals contact distance, SER 654 C to compound atom / van der Waals contact distance, SER 654 O to compound atom / van der Waals contact distance, TRP 655 C to compound atom / van der Waals contact distance, MASP-2 GLY 528 atom CA / van der Waals contact distance TRP 655 atom CZ3 / van der Waals contact distance TRP 655 atom N / van der Waals contact distance TRP 655 atom CE3 / van der Waals contact distance GLY 656 atom C / van der Waals contact distance GLY 656 atom CA / van der Waals contact distance GLY 656 atom O / van der Waals contact distance, MASP-2 TYR 607 atom CD1 / van der Waals contact distance, MASP-2 PRO 606 atom O / d(C3,CA1) / d(CA1,N1)2 / d(H4,O1) / d(H4,O2) / d(O1,O2) / d(CA1,O2) / d(CA6,O1) / d(CA6,O2) / d(CA1,C5) / d(O2,H3) / d(N2,C2) / d(CA5,N2) / d(N2,C4) / d(N2,C6) / d(N2,CA3) / d(N2,O3) / d(O4,H2): unit not given beside the values
# Conditions: for Ligand-pharmacophore element distance, pharmacophore element C2 / Ligand-pharmacophore element distance, pharmacophore element C3 / Ligand-pharmacophore element distance, pharmacophore element C4 / Ligand-pharmacophore element distance, pharmacophore element C5 / Ligand-pharmacophore element distance, pharmacophore element C6 / Ligand-pharmacophore element distance, pharmacophore element C7 / Ligand-pharmacophore element distance, pharmacophore element CA1 / Ligand-pharmacophore element distance, pharmacophore element CA2 / Ligand-pharmacophore element distance, pharmacophore element CA3 / Ligand-pharmacophore element distance, pharmacophore element CA4 / Ligand-pharmacophore element distance, pharmacophore element CA5 / Ligand-pharmacophore element distance, pharmacophore element CA6: Table A4-1
# In short: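 Contacts and H-bonds come from partially refined soaked-crystal structures of recombinant human CCP2-SP made in E. coli, solved by molecular replacement against 1Q3X fragments. Where several ligand poses appeared, only one was analysed; listed nonbonded contacts may include possible H-bond pairings.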
# [1] = Table A5-1 pharmacophore: distance between elements, S2/S1 region
# [2] = Table A5-2 pharmacophore distance, S3/S4 region
# [3] = Table A7-2, between pharmacophore elements of the bound compound
# [4] = Table A7-1, between pharmacophore elements of the bound compound
# Sequence of MASP-2 CCP2-SP (O00187 445-686): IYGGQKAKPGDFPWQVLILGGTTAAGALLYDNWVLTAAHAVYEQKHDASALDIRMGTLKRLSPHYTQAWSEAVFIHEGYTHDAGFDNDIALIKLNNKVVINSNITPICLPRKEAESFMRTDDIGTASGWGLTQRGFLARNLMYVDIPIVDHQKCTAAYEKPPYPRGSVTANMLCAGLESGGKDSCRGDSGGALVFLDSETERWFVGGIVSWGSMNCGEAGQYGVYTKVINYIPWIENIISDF
# Sequence of MASP-2 CCP2-SP (O00187 364-432 partner): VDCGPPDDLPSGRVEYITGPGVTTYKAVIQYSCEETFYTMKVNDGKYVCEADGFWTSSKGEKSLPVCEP
compound,measurement,setting,value
CC(NC(=O)C1CC(Cc2ccccc2)CN1)C(=O)NCc1cnc2c(c1)c(Cl)cn2C.Cl.Cl (mixture of isomers) [1450_A],"Ligand-pharmacophore element distance, pharmacophore element C2",,0
same,"Ligand-pharmacophore element distance, pharmacophore element C3",,0
same,"Ligand-pharmacophore element distance, pharmacophore element C4",,0
same,"Ligand-pharmacophore element distance, pharmacophore element C5",,0.34
same,"Ligand-pharmacophore element distance, pharmacophore element C6",,0
same,"Ligand-pharmacophore element distance, pharmacophore element C7",,0.72
same,"Ligand-pharmacophore element distance, pharmacophore element CA1",,1.03
same,"Ligand-pharmacophore element distance, pharmacophore element CA2",,0.4
same,"Ligand-pharmacophore element distance, pharmacophore element CA3",,0
same,"Ligand-pharmacophore element distance, pharmacophore element CA4",,0
same,"Ligand-pharmacophore element distance, pharmacophore element CA5",,0
same,"Ligand-pharmacophore element distance, pharmacophore element CA6",,0
same,"d(CA1,C5)",[1],3.55
same,"d(CA1,O1)",[1],5.47
same,"d(CA1,O2)",[1],4.73
same,"d(CA1,O4)",[1],1.75
same,"d(H4,O1)",[1],3.16
same,"d(H4,O2)",[1],3.57
same,"d(O1,O2)",[1],3.11
same,"d(N2,CA2)",[2],5.88
same,"d(O2,H3)",[2],2.31
same,"d(O2,N2)",[2],2.81
same,"a(C5, CA1, O1)",Table A6-1 pharmacophore angle,150.97
same,"a(CA1, O1, O2)",Table A6-1 pharmacophore angle,94.14
same,"a(O1, CA1, C7)",Table A6-1 pharmacophore angle,136.18
same,"a(O1, CA1, O4)",Table A6-1 pharmacophore angle,68.80
same,"a(O1, O2, H4)",Table A6-1 pharmacophore angle,125.38
same,"a(O1, O2, H3)",Table A6-2 pharmacophore angle,127.40
same,"a(O1, O2, N2)",Table A6-2 pharmacophore angle,139.62
same,"a(O2, N2, CA2)",Table A6-2 pharmacophore angle,154.51
same,"Pharmacophore torsion angle a(O1, O2, N2, CA2)",[3],120.74
CC(=O)Nc1ccc(CCNC(CCc2ccccc2)C(=O)NC(C)C(=O)NCc2ccc(C(=N)N)cc2)cc1.Cl.Cl (centres unmarked) [1345_2],"Ligand-pharmacophore element distance, pharmacophore element C2",,0
same,"Ligand-pharmacophore element distance, pharmacophore element C3",,0
same,"Ligand-pharmacophore element distance, pharmacophore element C4",,0
same,"Ligand-pharmacophore element distance, pharmacophore element C5",,0
same,"Ligand-pharmacophore element distance, pharmacophore element C6",,0
same,"Ligand-pharmacophore element distance, pharmacophore element C7",,0
same,"Ligand-pharmacophore element distance, pharmacophore element CA1",,0.45
same,"Ligand-pharmacophore element distance, pharmacophore element CA2",,0.89
same,"Ligand-pharmacophore element distance, pharmacophore element CA3",,1.13
same,"Ligand-pharmacophore element distance, pharmacophore element CA4",,0
same,"Ligand-pharmacophore element distance, pharmacophore element CA5",,0
same,"Ligand-pharmacophore element distance, pharmacophore element CA6",,0
same,"d(CA1,O1)",[1],4.58
same,"d(CA1,O2)",[1],4.16
same,"d(H4,O1)",[1],4.97
same,"d(H4,O2)",[1],4.32
same,"d(O1,O2)",[1],3.32
same,"d(N2,CA2)",[2],5.98
same,"d(N2,CA3)",[2],5.15
same,"d(N2,O3)",[2],8.73
same,"d(O2,H3)",[2],5.51
same,"d(O2,N2)",[2],2.87
same,"a(CA1, O1, O2)",Table A6-1 pharmacophore angle,105.43
same,"a(O1, O2, H4)",Table A6-1 pharmacophore angle,138.87
same,"a(O1, O2, H3)",Table A6-2 pharmacophore angle,152.27
same,"a(O1, O2, N2)",Table A6-2 pharmacophore angle,142.63
same,"a(O2, N2, CA2)",Table A6-2 pharmacophore angle,153.90
same,"a(O2, N2, CA3)",Table A6-2 pharmacophore angle,151.66
same,"a(O2, N2, O3)",Table A6-2 pharmacophore angle,162.76
same,"Pharmacophore torsion angle a(H4, O1, O2, H3)",[4],49.59
same,"Pharmacophore torsion angle a(H4, O1, O2, N2)",[4],128.64
same,"Pharmacophore torsion angle a(O1, H4, O2, CA1)",[4],−68.67
same,"Pharmacophore torsion angle a(O1, O2, N2, CA2)",[3],129.85
same,"Pharmacophore torsion angle a(O1, O2, N2, CA3)",[3],−34.52
same,"Pharmacophore torsion angle a(O1, O2, N2, O3)",[3],−20.78
C[C@H](NC(=O)[C@H]1C[C@@H](c2ccccc2)CCN1)C(=O)NCc1cc(Cl)ccc1O.Cl [1078_13],"Ligand-pharmacophore element distance, pharmacophore element C2",,0.58
same,"Ligand-pharmacophore element distance, pharmacophore element C3",,0
same,"Ligand-pharmacophore element distance, pharmacophore element C4",,0
same,"Ligand-pharmacophore element distance, pharmacophore element C5",,0.47
same,"Ligand-pharmacophore element distance, pharmacophore element C6",,0
same,"Ligand-pharmacophore element distance, pharmacophore element C7",,0
same,"Ligand-pharmacophore element distance, pharmacophore element CA1",,1.62
same,"Ligand-pharmacophore element distance, pharmacophore element CA2",,0.73
same,"Ligand-pharmacophore element distance, pharmacophore element CA3",,0
same,"Ligand-pharmacophore element distance, pharmacophore element CA4",,0
same,"Ligand-pharmacophore element distance, pharmacophore element CA5",,0
same,"Ligand-pharmacophore element distance, pharmacophore element CA6",,0
same,"d(CA1,C5)",[1],3.12
same,"d(CA1,O1)",[1],4.37
same,"d(CA1,O2)",[1],4.66
same,"d(CA1,O4)",[1],2.76
same,"d(H4,O1)",[1],3.14
same,"d(H4,O2)",[1],3.66
same,"d(O1,O2)",[1],3.25
same,"d(O4,H2)",[1],0.98
same,"d(N2,C2)",[2],1.47
same,"d(N2,CA2)",[2],5.61
same,"d(O2,H3)",[2],2.11
same,"d(O2,N2)",[2],2.79
same,"a(C5, CA1, O1)",Table A6-1 pharmacophore angle,162.99
same,"a(CA1, O1, O2)",Table A6-1 pharmacophore angle,115.77
same,"a(CA1, O4, H2)",Table A6-1 pharmacophore angle,129.33
same,"a(O1, CA1, O4)",Table A6-1 pharmacophore angle,65.06
same,"a(O1, O2, H4)",Table A6-1 pharmacophore angle,123.59
same,"a(O1, O2, H3)",Table A6-2 pharmacophore angle,135.66
same,"a(O1, O2, N2)",Table A6-2 pharmacophore angle,146.15
same,"a(O2, N2, C2)",Table A6-2 pharmacophore angle,127.57
same,"a(O2, N2, CA2)",Table A6-2 pharmacophore angle,154.39
same,"Pharmacophore torsion angle a(C5, CA1, O1, H4)",[4],−7.66
same,"Pharmacophore torsion angle a(H4, O1, O2, H3)",[4],−157.30
same,"Pharmacophore torsion angle a(H4, O1, O2, N2)",[4],−162.99
same,"Pharmacophore torsion angle a(O1, H4, O2, CA1)",[4],−78.80
same,"Pharmacophore torsion angle a(O1, O2, N2, C2)",[4],118.91
same,"Pharmacophore torsion angle a(O1, O2, N2, CA2)",[3],137.37
CC(NC(=O)C(CCc1ccccc1)NCCCc1ccc(O)cc1)C(=O)NCc1ccc(C(=N)N)cc1.Cl.Cl (centres unmarked) [1145_A],"Ligand-pharmacophore element distance, pharmacophore element C2",,0
same,"Ligand-pharmacophore element distance, pharmacophore element C3",,0
same,"Ligand-pharmacophore element distance, pharmacophore element C4",,0
same,"Ligand-pharmacophore element distance, pharmacophore element C5",,0
same,"Ligand-pharmacophore element distance, pharmacophore element C6",,0
same,"Ligand-pharmacophore element distance, pharmacophore element C7",,0
same,"Ligand-pharmacophore element distance, pharmacophore element CA1",,0.47
same,"Ligand-pharmacophore element distance, pharmacophore element CA2",,0.41
same,"Ligand-pharmacophore element distance, pharmacophore element CA3",,1.22
same,"Ligand-pharmacophore element distance, pharmacophore element CA4",,0
same,"Ligand-pharmacophore element distance, pharmacophore element CA5",,0
same,"Ligand-pharmacophore element distance, pharmacophore element CA6",,0
same,"d(CA1,N1)",[1],3.54
same,"d(CA1,O1)",[1],4.42
same,"d(CA1,O2)",[1],4.42
same,"d(H4,O1)",[1],4.89
same,"d(H4,O2)",[1],4.48
same,"d(O1,O2)",[1],3.28
same,"d(N2,CA2)",[2],5.91
same,"d(N2,CA3)",[2],5.59
same,"d(N2,H1)",[2],8.64
same,"d(N2,O3)",[2],7.97
same,"d(O2,H3)",[2],5.36
same,"d(O2,N2)",[2],2.77
same,"a(CA1, O1, O2)",Table A6-1 pharmacophore angle,111.73
same,"a(O1, O2, H4)",Table A6-1 pharmacophore angle,139.31
same,"A(N1, CA1, O1) a)","Table A6-1 pharmacophore angle, all compounds with protonatable center N1 except Methyl-amino-pyridine",162.28
same,"a(O1, O2, H3)",Table A6-2 pharmacophore angle,150.25
same,"a(O1, O2, N2)",Table A6-2 pharmacophore angle,136.24
same,"a(O2, N2, CA2)",Table A6-2 pharmacophore angle,153.28
same,"a(O2, N2, CA3)",Table A6-2 pharmacophore angle,161.48
same,"a(O2, N2, H1)",Table A6-2 pharmacophore angle,168.81
same,"a(O2, N2, O3)",Table A6-2 pharmacophore angle,168.41
same,"Pharmacophore torsion angle a(H4, O1, O2, H3)",[4],48.71
same,"Pharmacophore torsion angle a(H4, O1, O2, N2)",[4],124.15
same,"Pharmacophore torsion angle a(N1, CA1, O2, H4)",[4],−128.41
same,"Pharmacophore torsion angle a(O1, H4, O2, CA1)",[4],−59.90
same,"Pharmacophore torsion angle a(O1, O2, N2, CA2)",[3],140.87
same,"Pharmacophore torsion angle a(O1, O2, N2, CA3)",[3],−15.65
same,"Pharmacophore torsion angle a(O1, O2, N2, H1)",[3],−17.10
same,"Pharmacophore torsion angle a(O1, O2, N2, O3)",[3],−10.98
